What was measured:
FAO rat hepatoma cells = experiment: Cell based assays (IR phosphorylation assays); settings: prodrug vs parent carboxylic-phosphonic acid
Text: Antibodies and Chemicals. The antibody against phosphorylated insulin receptor (pIR) and the ELISA kit for detection of pIR were from Biosource (Camarillo, Calif.). Rabbit anti-IR/IGF-1R [pYpY1162/1163] phosphospecific antibody recognizes both the insulin receptor (IR) and the insulin-like growth factor-1 receptor (IGF-1R) phosphorylated at the active site tyrosine residues, 1162 and 1163 (1135 and 1136 for IGF-1R) (pIR/pIGF-1R). The Insulin Receptor [pYpY1162/1163] […] HRP-conjugated secondary antibodies were from Cell Signaling Technology (Beverly, Mass.). The ECL detection system was from Amersham (Buckinghamshire, UK), and human insulin was from Invitrogen (Carlsbad, Calif.).
Tissue Culture. FAO rat hepatoma cells were obtained from ECACC (#89042701) and maintained at 37° C. in a 5% CO2 environment in Dulbecco's modified Eagle's medium with high glucose (DMEM-high glucose) (4500 mg/liter) supplemented with 10% FBS and 50 units/ml penicillin, 100 µg/ml streptomycin and 0.292 mg/ml L-glutamine. For assays, cells were seeded in 24-well plates at a density of 2×10^5 cells/well and maintained until they reached confluency (about 3 days).
IR phosphorylation assays. Cells in 24-well plates were serum starved overnight in DMEM-low glucose (1000 mg/liter) without serum. […] The pIR/pIGF-1R signals were scanned (HP scanjet 3570c) and quantified (Scion Image). […]

Row | Structure (SMILES) | increase in activity in a cell-based assay as compared to the parent carboxylic-phosphonic acid (FAO rat hepatoma cells) | melting point
1 | CC(C)(C)C(=O)OCOC(=O)c1ccc(-c2csc(NCc3ccc(C(F)(F)P(=O)(O)OCOC(=O)C(C)(C)C)c(Br)c3)n2)cc1 [4-[2-(3-Bromo-4-{[(2,2-dimethyl-propionyloxymethoxy)-hydroxy-phosphoryl]-difluoro-methyl}-benzylamino)-thiazol-4-yl]-benzoic acid 2,2-dimethyl-propionyloxymethyl ester] | ~10 fold | 
2 | O=C(O)c1cccc(Oc2cccc(-c3nn(Cc4ccc(C(F)(F)P(=O)(O)O)c(Cl)c4)c(=Nc4ccc(Cl)c(Cl)c4)s3)c2)c1 [Example 8, 3-{3-[4-[3-Chloro-4-(difluoro-phosphono-methyl)-benzyl]-5-(3,4-dichloro-phenylimino)-4,5-dihydro-[1,3,4]thiadiazol-2-yl]-phenoxy}-benzoic acid] |  | 212 to 215 °C
3 | COC(=O)c1cccc(Oc2cccc(-c3nn(Cc4ccc(C(F)(F)P(=O)(O)O)c(Cl)c4)c(=Nc4ccc(Cl)c(Cl)c4)s3)c2)c1 [Example 9, 3-{3-[4-[3-Chloro-4-(difluoro-phosphono-methyl)-benzyl]-5-(3,4-dichloro-phenylimino)-4,5-dihydro-[1,3,4]thiadiazol-2-yl]-phenoxy}-benzoic acid methyl ester] |  | 137 to 139 °C
4 | O=C(O)c1cccc(Oc2cccc(-c3nn(Cc4ccc(C(F)(F)P(=O)(O)O)c(F)c4)c(=Nc4ccc(Cl)c(Cl)c4)s3)c2)c1 [Example 10, 3-(3-{5-(3,4-Dichloro-phenylimino)-4-[4-(difluoro-phosphono-methyl)-3-fluoro-benzyl]-4,5-dihydro-[1,3,4]thiadiazol-2-yl}-phenoxy)-benzoic acid] |  | 153 to 156 °C
5 | COC(=O)c1cccc(Oc2cccc(-c3nn(Cc4ccc(C(F)(F)P(=O)(O)O)c(F)c4)c(=Nc4ccc(Cl)c(Cl)c4)s3)c2)c1 [Example 11, 3-(3-{5-(3,4-Dichloro-phenylimino)-4-[4-(difluoro-phosphono-methyl)-3-fluoro-benzyl]-4,5-dihydro-[1,3,4]thiadiazol-2-yl}-phenoxy)-benzoic acid methyl ester] |  | 137 to 139 °C
6 | O=C(O)c1cccc(Oc2cccc(-c3nnc(N(Cc4ccc(C(F)(F)P(=O)(O)O)c(Cl)c4)c4ccc(Cl)c(Cl)c4)s3)c2)c1 [Example 46, 3-(3-{5-[[3-Chloro-4-(difluoro-phosphono-methyl)-benzyl]-(3,4-dichloro-phenyl)-amino]-[1,3,4]thiadiazol-2-yl}-phenoxy)-benzoic acid] |  | 178 to 180 °C
7 | COC(=O)c1cccc(Oc2cccc(-c3nnc(N(Cc4ccc(C(F)(F)P(=O)(O)O)c(Cl)c4)c4ccc(Cl)c(Cl)c4)s3)c2)c1 [Example 48, 3-(3-{5-[[3-Chloro-4-(difluoro-phosphono-methyl)-benzyl]-(3,4-dichloro-phenyl)-amino]-[1,3,4]thiadiazol-2-yl}-phenoxy)-benzoic acid methyl ester] |  | 73 to 76 °C
